Laboratory results published in PMC8582298 (ChemMedChem, 2020).

How the values were obtained:
PP2A = PP2A (Homo sapiens, UniProt P67775); assay: Malachite green assay, IC50 determination, PP2A; assay type: biochemical
PP1 [1] = target: T1, PP1 (Oryctolagus cuniculus, UniProt P62139); assay: Malachite green assay, IC50 determination, PP1; assay type: biochemical; conditions: for PP1 versus PP2A preference (in words): based on IC50 values; for IC50 PP1: malachite green assay, phosphopeptide K-R-pT-I-R-R 40 μM, 30 °C, three trials
PP1 [2] = target: T1, PP1; conditions: literature values; cited from earlier work

T1 sequence (P62139 whole entry): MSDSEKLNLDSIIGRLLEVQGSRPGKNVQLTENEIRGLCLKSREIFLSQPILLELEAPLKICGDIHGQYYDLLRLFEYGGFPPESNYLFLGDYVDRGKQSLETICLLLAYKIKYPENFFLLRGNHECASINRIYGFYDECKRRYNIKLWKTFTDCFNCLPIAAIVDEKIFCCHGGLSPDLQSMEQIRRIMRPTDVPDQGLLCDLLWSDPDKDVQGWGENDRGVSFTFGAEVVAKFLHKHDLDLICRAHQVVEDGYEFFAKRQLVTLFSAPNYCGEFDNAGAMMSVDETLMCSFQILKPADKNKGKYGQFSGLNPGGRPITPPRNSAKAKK
PP2A, sequence (P67775 whole entry): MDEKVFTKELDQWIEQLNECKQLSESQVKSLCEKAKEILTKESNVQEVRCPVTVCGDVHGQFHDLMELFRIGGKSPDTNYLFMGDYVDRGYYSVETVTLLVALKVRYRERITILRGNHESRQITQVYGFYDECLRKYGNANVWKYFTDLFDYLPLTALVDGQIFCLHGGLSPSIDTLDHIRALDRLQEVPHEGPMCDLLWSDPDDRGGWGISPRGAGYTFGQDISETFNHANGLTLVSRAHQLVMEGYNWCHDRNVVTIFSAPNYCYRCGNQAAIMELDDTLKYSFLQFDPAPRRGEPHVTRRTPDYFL

Compound | IC50 (PP2A) [nM] | IC50 (PP1 [1]) [nM] | PP1 versus PP2A preference (in words) (PP1 [1]) | IC50 PP1 (PP1 [1]) | Selectivity for PP1 over PP2A (PP1 [2])
CC1=C([C@H](O)CC(=O)O[C@H](C)[C@@H](C)[C@H](O)CC(=O)[C@@H](C)[C@@H](O)CCCCCOC(=O)c2ccccc2)C(=O)OC1=O [1d, (6S,7S,10R,11S,12R)-6,10-dihydroxy-12-(((R)-3-hydroxy-3-(4-methyl-2,5-dioxo-2,5-dihydrofuran-3-yl)propanoyl)oxy)-7,11-dimethyl-8-oxotridecyl benzoate] | 260 | 34 ± 2 | PP1 selective | nanomolar range | 
CC1=C([C@H](O)CC(=O)O[C@H](C)[C@@H](C)[C@H](O)CC(=O)[C@@H](C)[C@@H](O)CCCCCOC(=O)c2ccc(-c3ccccc3)cc2)C(=O)OC1=O [1e, (6S,7S,10R,11S,12R)-6,10-dihydroxy-12-(((R)-3-hydroxy-3-(4-methyl-2,5-dioxo-2,5-dihydrofuran-3-yl)propanoyl)oxy)-7,11-dimethyl-8-oxotridecyl [1,1’-biphenyl]-4-carboxylate] | 6800 | 1500 ± 150 | PP1 selective | nanomolar range | 
CO[C@H]([C@H](O)CC(=O)[C@@H](C)[C@@H](O)CC[C@@H](C)[C@@H]1O[C@]2(CC[C@@H](C)[C@H](CC[C@H](C)C(C)=O)O2)CC[C@@H]1C)[C@H](OC(=O)C[C@@H](O)C1=C(C)C(=O)OC1=O)C(C)C [TTM, tautomycin] |  |  |  |  | approximately 5 fold
C=C/C(=C/C(=O)C[C@H](C)C[C@@H](C)CC[C@H](O)[C@H](C)C(=O)C[C@@H](O)[C@H](C)[C@@H](C)OC(=O)C[C@@H](O)C1=C(C)C(=O)OC1=O)CC [TTN, tautomycetin, reference compound] | 490 | 11 ± 1 |  |  | ~140 fold
